Assay [1] concerns guinea pig ileum. The assay can be described thus: antispasmodic activity against contractions of guinea pig ileum induced by histamine and acetylcholine. To be noted: Cavia porcellus. As for the experimental part: The antispasmodic activity of the products according to the invention was tested against contractions of guinea pig ileum, such as induced by histamine and acetylcholine. These tests allow to reveal an antihistaminic activity, an anticholinergic activity or a musculotropic antispasmodic activity. The response to the contracting agent (submaximum concentration)was repeated every 5 minutes before and after injection of increasing doses of the tested products (10^-8 to 10^-5 M). The various doses were added at intervals of 20 minutes or of the time necessary to the development of the maximum effect.
The percentage of inhibition under the influence of tested products was calculated and the theoretical concentration ensuring 50% inhibition was graphically determined for each experience. These values were expressed as -log IC50 (M). The standard value for papaverine was 4.50, namely an effective concentration of 30 μM.

In assay [2] the test system is femoral arterial circulation. The assay can be described thus: peripheral vasodilator activity on anaesthetized dog, femoral arterial perfusion pressure. In kind it is in vivo. To be noted: 30 μg/kg injected in femoral perfusion (some also at other doses); in words. As for the experimental part:
The peripheral vasodilator activity of the products according to the invention was measured on anaesthetized dog at the level of the femoral arterial circulation. To this end, the femoral artery the collaterals of which were ligaturated was perfused with a constant flow rate of blood taken from aorta. Thus the perfusion pressure measured at the level of the femoral artery, varied as a function of the resistance of perfused area. The tested products and the corresponding solvents were directly injected in the system at the dose of 30 μg/kg. The blood circulation rate being maintained constant, a vasodilation was thus measured by a decrease of the perfusion pressure. The latter is rated in comparison with the action of papaverine considered as standard and injected once per group of 4 products.
When being of interest, the products were tested at other doses under the same conditions. The vasodilation activity was rated as follows:
+: 1/3 of the papaverine activity
++: 2/3 of the papaverine activity
+++: activity equal to that of papaverine (i.e. 30 to 40 mm Hg)
++++: activity higher than that of papaverine.

In assay [3] the test system is spontaneously hypertensive rats. The assay can be described thus: antihypertensive activity, oral administration to non-anesthetized spontaneously hypertensive rats, systolic arterial pressure (plethysmographic). It is filed as in vivo, rat. As to conditions: for antihypertensive activity: 60 mgr/kg oral (some also at other doses), in words; for antihypertensive effect (rating): oral. As for the experimental part: Their antihypertensive activity was tested by oral administration to non-anesthetized, spontaneously hypertensive rats, on which the systolic arterial pressure is measured at the level of the median coccygeal artery by means of a plethysmographic method (J. Roba, G. Lambelin, A. F. De Schaepdryver, Arch. int. Pharmacodyn., 200, 182, 1972). The arterial pressure was measured every 30 minutes from two hours before to three hours after oral administration of 60 mgr/kg of the tested products or of a placebo (1% tragacanth gum mucilage). When being of interest, the products were tested at other doses under similar conditions. Only rats having a systolic pressure of 180 to 220 mm Hg were used. Two rats were used for each product. The treatments were made without the knowledge of the person making the measures. The antihypertensive effects were rated as follows:
+: reduction of 10 to 20 mm Hg
++: reduction of 20 to 30 mm Hg
+++: reduction of 30 to 50 mm Hg
++++: reduction >50 mm Hg

The mark [4] stands for this setting: 50% inhibition of contractions, converted from -log IC50, read-out: effective concentration / concentration corresponding to -log IC50 (converted).
The mark [5] stands for this setting: contractions induced by histamine and acetylcholine, 10^-8 to 10^-5 M, read-out: -log IC50 (M), antispasmodic activity (converted).
Setting [6] is: read-out: -log IC50 (M), antispasmodic activity (converted).
Where [7] appears, read: read-out: effective concentration / concentration corresponding to -log IC50 (converted).

From patent US4474977A, “Amino-alcohol derivatives” (Continental Pharma S.A., priority 1977, dated 1984) come the findings set out here.

Like-named read-outs stand apart in the source and are kept apart here.

For `CCCCCCCCN[C@@H](C)[C@@H](OC(=O)C1CCCCC1)c1ccc(SC(C)C)cc1` (relative stereo) [Compound 29], the IC50 in assay [1] (setting [4]) and in assay [1] (setting [5]) was under 1e-06 M each time.
With `CCCCCCCCNC(C)C(OC(=O)CC)c1ccc(SC(C)C)cc1` (centres unmarked) [Compound 2], the IC50 in assay [1] (setting [4]) and in assay [1] (setting [5]) was under 1e-06 M in each case.
Take `CCCCCCCCNC(C)C(OC(=O)C(C)C)c1ccc(SC(C)C)cc1` (centres unmarked) [Compound 4]: the IC50 in assay [1] (setting [4]) and in assay [1] (setting [5]) was under 1e-06 M throughout. Besides, in assay [2], the “peripheral vasodilator activity (compared with papaverine)” value is given as “at least equal to that of papaverine”.
Regarding `CCCCCCCCNC(C)C(OC(=O)CCC)c1ccc(SC(C)C)cc1.Cl` (centres unmarked) [Compound 6, 1-Butyryloxy-1-(4-isopropylthiophenyl)-2-n-octylaminopropane hydrochloride], the IC50 in assay [1] (setting [4]) and in assay [1] (setting [5]) was under 1e-06 M in each case. In addition, in assay [2], the “peripheral vasodilator activity (compared with papaverine)” value is listed as “at least equal to that of papaverine”.
Turning to `CCCCCCCCNC(C)C(OC(=O)C1CCCCC1)c1ccc(SC(C)C)cc1` (centres unmarked) [Compound 7], the antihypertensive activity entry in assay [3] is “suitable antihypertensive activity”.
Same read-out and setting: the same measure for `CCCCCCCCNC(C)C(OC(=O)C1CCCC1)c1ccc(SC(C)C)cc1` (centres unmarked) [Compound 8]: “suitable antihypertensive activity”.
For `CCCCCCCCNC(C)C(OC(=O)C1CCC1)c1ccc(SC(C)C)cc1` (centres unmarked) [Compound 9], the IC50 in assay [1] (setting [4]) and in assay [1] (setting [5]) was under 1e-06 M each time. In addition, in assay [2], the “peripheral vasodilator activity (compared with papaverine)” value is “at least equal to that of papaverine”.
Consider `CC(C)Sc1ccc(C(OC(=O)C2CCC2)C(C)NCCCCc2ccccc2)cc1` (centres unmarked) [Compound 10], for which the IC50 in assay [1] (setting [4]) and in assay [1] (setting [5]) was under 1e-06 M throughout. Further, the antihypertensive activity entry in assay [3] is listed as “suitable antihypertensive activity”.
For `CCCCCCCCNC(C)C(OC(=O)CC)c1ccc(SC2CCCCC2)cc1` (centres unmarked) [Compound 11], the IC50 in assay [1] (setting [4]) and in assay [1] (setting [5]) was under 1e-06 M in each case.
For `CCCCCCCCNC(C)C(OC(C)=O)c1ccc(SC2CCCC2)cc1` (centres unmarked) [Compound 15], the IC50 in assay [1] (setting [6]) and in assay [1] (setting [7]) was under 1e-06 M each time. The “peripheral vasodilator activity (compared with papaverine)” value in assay [2] is recorded as “at least equal to that of papaverine”.
Turning to `CCCCCCCCNC(C)C(OC(C)=O)c1ccc(OC(C)C)cc1` (centres unmarked) [Compound 18, 1-acetyloxy-1-(4-isopropyloxyphenyl)-2-n.octylaminopropane], the IC50 in assay [1] (setting [6]) and in assay [1] (setting [7]) was under 1e-06 M each time. Further, the “peripheral vasodilator activity (compared with papaverine)” value in assay [2] is recorded as “at least equal to that of papaverine”. For the same compound, in assay [3], the antihypertensive activity entry is reported as “suitable antihypertensive activity”.
As for `CCCCCCCCNC(C)C(OC(=O)C(C)C)c1ccc(OCCCC)cc1` (centres unmarked) [Compound 19, 1-(p-n-Butyloxyphenyl)-1-sec-butyryloxy-2-n-octylaminopropane], the antihypertensive activity entry in assay [3] was “suitable antihypertensive activity”.
Consider `CC(C)Sc1ccc(C(OC(=O)C(C)C)C(C)NCCOc2ccccc2)cc1` (centres unmarked) [Compound 22], for which the IC50 in assay [1] (setting [4]) and in assay [1] (setting [5]) was under 1e-06 M throughout.
As to `CCCC(=O)OC(c1ccc(SC(C)C)cc1)C(C)NCCCCc1ccccc1` (centres unmarked) [Compound 23], the IC50 in assay [1] (setting [4]) and in assay [1] (setting [5]) was under 1e-06 M each time. Also, the “peripheral vasodilator activity (compared with papaverine)” value in assay [2] is listed as “at least equal to that of papaverine”.
For `CCCC(=O)OC(c1ccc(SC(C)C)cc1)C(C)NCCOc1ccccc1` (centres unmarked) [Compound 24], the IC50 in assay [1] (setting [4]) and in assay [1] (setting [5]) was under 1e-06 M in each case. In assay [3], the antihypertensive activity result is listed as “suitable antihypertensive activity”.
As to `CC(=O)OC(c1ccc(SC(C)C)cc1)C(C)NCCOc1ccccc1` (centres unmarked) [Compound 25], the antihypertensive activity result in assay [3] is listed as “suitable antihypertensive activity”.
Take `CC(C)Sc1ccc(C(OC(=O)C(C)C)C(C)NCCCCc2ccccc2)cc1` (centres unmarked) [Compound 26]: the IC50 in assay [1] (setting [4]) and in assay [1] (setting [5]) was under 1e-06 M throughout. Besides, in assay [2], the “peripheral vasodilator activity (compared with papaverine)” value was “at least equal to that of papaverine”.
Take `CCCCCCCCNC(C)C(OC(=O)C1CC1)c1ccc(SC(C)C)cc1` (centres unmarked) [Compound 28]: the IC50 in assay [1] (setting [4]) and in assay [1] (setting [5]) was under 1e-06 M throughout.
For the compound `CCCCCCCCNC(C)C(OC(=O)CCCCC(=O)OC)c1ccc(SC(C)C)cc1` (centres unmarked) [Compound 31], the IC50 in assay [1] (setting [4]) and in assay [1] (setting [5]) was under 1e-06 M each time.
`CCCCCCCCNC(C)C(OC(=O)CCc1ccccc1)c1ccc(SC(C)C)cc1` (centres unmarked) [Compound 32]: the IC50 in assay [1] (setting [4]) and in assay [1] (setting [5]) was under 1e-06 M each time.
As to `CCCCCCCCNC(C)C(OC(=O)Cc1ccccc1)c1ccc(SC(C)C)cc1` (centres unmarked) [Compound 34], the antihypertensive activity entry in assay [3] was “suitable antihypertensive activity”.
Same read-out and setting: the same measure for `CCCCCCCCNC(C)C(OC(=O)Cc1ccc(OC)cc1)c1ccc(SC(C)C)cc1` (centres unmarked) [Compound 35]: “suitable antihypertensive activity”.
Regarding `CCCCCCCCNC(C)C(OC(=O)CC1CCCCC1)c1ccc(SC(C)C)cc1` (centres unmarked) [Compound 37], in assay [3], the antihypertensive activity entry is on record as “suitable antihypertensive activity”.
The same measure, in the same setting: then `CC(=O)OC(c1ccc(SC(C)C)cc1)C(C)NCCCC(=O)c1ccc(F)cc1` (centres unmarked) [Compound 43], with “suitable antihypertensive activity”.
As to `CCCCCCCCNC(C)C(O)c1ccc(OCC(C)C)cc1` (centres unmarked) [Compound 78], the IC50 in assay [1] (setting [6]) and in assay [1] (setting [7]) was under 1e-06 M in each case. Further, the “peripheral vasodilator activity (compared with papaverine)” value in assay [2] is reported as “at least equal to that of papaverine”.
As for `CCCCCCNC(C)C(O)c1ccc(OCC(C)C)cc1` (centres unmarked) [Compound 79], the “peripheral vasodilator activity (compared with papaverine)” value in assay [2] is listed as “at least equal to that of papaverine”.
Consider `CCCCCCCCNC(C)C(O)c1ccc(C(C)C)cc1` (centres unmarked) [Compound 81, 1-(4-isopropylphenyl)-2-n-octylamino-1-propanol], for which the IC50 in assay [1] (setting [6]) and in assay [1] (setting [7]) was under 1e-06 M in each case. For the same compound, the “peripheral vasodilator activity (compared with papaverine)” value in assay [2] is on record as “at least equal to that of papaverine”.
For the compound `CCCCCCCCCCCCNC(C)C(O)c1ccc(C(C)C)cc1` (centres unmarked) [Compound 82], the “peripheral vasodilator activity (compared with papaverine)” value in assay [2] is listed as “at least equal to that of papaverine”.
For `CCCCCCNC(C)C(O)c1ccccc1` (centres unmarked) [Compound 83], the IC50 in assay [1] (setting [6]) and in assay [1] (setting [7]) was under 1e-06 M throughout. Further, the “peripheral vasodilator activity (compared with papaverine)” value in assay [2] is reported as “at least equal to that of papaverine”.
On to `CCCCCCCCNC(C)C(O)c1ccc(Cl)cc1` (centres unmarked) [Compound 85], for which the IC50 in assay [1] (setting [6]) and in assay [1] (setting [7]) was under 1e-06 M each time. The “peripheral vasodilator activity (compared with papaverine)” value in assay [2] is listed as “at least equal to that of papaverine”.
Regarding `CCCCCCCCCCCCNC(C)C(O)c1ccc(OC)cc1` (centres unmarked) [Compound 88], the IC50 in assay [1] (setting [6]) and in assay [1] (setting [7]) was under 1e-06 M in each case.
On to `CCCCCCCCNC(C)C(O)c1ccc(OCCCC)cc1` (centres unmarked) [Compound 91, 1-(4-butoxyphenyl)-2-n-octylamino-1-propanol], for which the IC50 in assay [1] (setting [6]) and in assay [1] (setting [7]) was under 1e-06 M throughout. Further, the “peripheral vasodilator activity (compared with papaverine)” value in assay [2] is “at least equal to that of papaverine”.
Consider `CC(C)Oc1ccc(C(O)C(C)NCCCCc2ccccc2)cc1` (centres unmarked) [Compound 94, 1-(4-Isopropoxyphenyl)-2-(4-phenylbutylamino)-1-propanol], for which the antihypertensive activity entry in assay [3] is on record as “suitable antihypertensive activity”.
In the case of `COc1ccc(Cc2nccc3cc(OC)c(OC)cc23)cc1OC` [papaverine, reference compound], the IC50 is 3.16e-05 M in assay [1] (setting [6]) and 3e-05 M in assay [1] (setting [7]).
Turning to `COC(=O)[C@H]1[C@H]2C[C@@H]3c4[nH]c5cc(OC)ccc5c4CCN3C[C@H]2C[C@@H](OC(=O)c2cc(OC)c(OC)c(OC)c2)[C@@H]1OC` [reserpine, reference compound], the “antihypertensive effect (rating)” value in assay [3] (3 mgr/kg) was “+++ (reduction of 30 to 50 mm Hg)”.
Regarding `CC(N)(Cc1ccc(O)c(O)c1)C(=O)O` (stereo not drawn) [α-methyldopa, reference compound], the “antihypertensive effect (rating)” value in assay [3] (100 mgr/kg) was “+++ (reduction of 30 to 50 mm Hg)”.
